Measured values as given in US8293916B2, “Diazole derivatives” (Hoffmann-La Roche Inc., priority 2004, dated 2012).
Where two headings read alike, the source gives them in different places.

Molecular target: T1, human mGlu 5a receptor (Homo sapiens, UniProt P41594)
T1 construct: expressed in transfected cells; host or cells: EBNA cells (transient transfection); cell membrane homogenates
Assay: [3H]MPEP competition binding on membranes of EBNA cells transiently transfected with human mGlu 5a receptor
Description: Cell membrane homogenates were stored at −80° C. until the day of assay where upon they were thawed and resuspended and polytronised in 15 mM Tris-HCl, 120 mM NaCl, 100 mM KCl, 25 mM CaCl2, 25 mM MgCl2 binding buffer at pH 7.4 to a final assay concentration of 20 μg protein/well.
Competition experiments were performed with a fixed concentration of [^3H]MPEP (2 nM) and IC50 values of test compounds evaluated using 11 concentrations (0.3-10,000 nM).
Nonspecific binding was measured in the presence of 10 μM MPEP. The radioactivity on the filter was counted (3 min) on a Packard Top-count microplate scintillation counter with quenching correction after addition of 45 μl of microscint 40 (Canberra Packard S.A., Zürich, Switzerland) and shaking for 20 min.
The Ki value is defined by the following formula: Ki=IC50/[1+L/Kd] in which the IC50 values are those concentrations of the compounds tested which cause 50% inhibition of the competing radioligand ([^3H]MPEP). L is the concentration of radioligand used in the binding experiment and the Kd value of the radioligand is empirically determined for each batch of membranes prepared.

[1] = competition with [3H]MPEP (2 nM), 1 h at 4° C., pH 7.4, Ki=IC50/[1+L/Kd]

T1 sequence (P41594 21-1180 isoform P41594-2 limits assumed): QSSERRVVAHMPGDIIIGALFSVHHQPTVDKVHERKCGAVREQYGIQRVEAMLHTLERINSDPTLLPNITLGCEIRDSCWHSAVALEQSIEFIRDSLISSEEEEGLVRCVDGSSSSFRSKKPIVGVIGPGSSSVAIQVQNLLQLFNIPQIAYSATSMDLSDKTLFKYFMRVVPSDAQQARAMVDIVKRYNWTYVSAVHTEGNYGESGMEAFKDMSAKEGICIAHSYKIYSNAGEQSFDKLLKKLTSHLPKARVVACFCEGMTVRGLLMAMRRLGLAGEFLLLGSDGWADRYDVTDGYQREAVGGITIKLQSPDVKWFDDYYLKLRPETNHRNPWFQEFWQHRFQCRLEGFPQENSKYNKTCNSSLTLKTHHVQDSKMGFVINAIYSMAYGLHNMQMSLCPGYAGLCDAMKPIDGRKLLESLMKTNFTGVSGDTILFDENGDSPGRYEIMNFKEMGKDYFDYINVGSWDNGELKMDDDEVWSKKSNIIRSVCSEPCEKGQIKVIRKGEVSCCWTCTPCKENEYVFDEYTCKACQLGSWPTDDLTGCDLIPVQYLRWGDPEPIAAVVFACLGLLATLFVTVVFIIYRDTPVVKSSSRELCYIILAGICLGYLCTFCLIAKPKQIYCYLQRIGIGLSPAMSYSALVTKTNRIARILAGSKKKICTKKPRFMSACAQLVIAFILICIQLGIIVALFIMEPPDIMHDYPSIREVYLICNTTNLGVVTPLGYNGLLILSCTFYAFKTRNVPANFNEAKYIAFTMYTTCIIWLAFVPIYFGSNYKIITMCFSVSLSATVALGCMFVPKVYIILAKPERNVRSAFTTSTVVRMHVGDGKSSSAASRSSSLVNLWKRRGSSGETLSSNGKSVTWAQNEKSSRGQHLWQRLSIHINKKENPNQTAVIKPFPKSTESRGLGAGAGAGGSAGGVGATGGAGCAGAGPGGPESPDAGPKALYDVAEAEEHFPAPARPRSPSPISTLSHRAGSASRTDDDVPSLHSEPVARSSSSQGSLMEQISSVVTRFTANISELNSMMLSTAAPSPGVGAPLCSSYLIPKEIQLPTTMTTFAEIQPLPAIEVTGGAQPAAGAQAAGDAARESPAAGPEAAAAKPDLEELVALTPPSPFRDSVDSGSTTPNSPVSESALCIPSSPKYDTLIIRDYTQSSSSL

| Ki | Ki [1] | SMILES |
| --- | --- | --- |
| 14 nM | – | Cc1nc(C#Cc2ccnc(Cl)c2)c(C)n1-c1ccc(C(F)(F)F)cc1 [Example 13, 2-Chloro-4-[2,5-dimethyl-1-(4-trifluoromethyl-phenyl)-1H-imidazol-4-ylethynyl]-pyridine] |
| – | 6 nM | Cc1c(C#Cc2ccnc(Cl)c2)nn(C)c1-c1ccc(F)cc1 [Example 26, 2-Chloro-4-[5-(4-fluoro-phenyl)-1,4-dimethyl-1H-pyrazol-3-ylethynyl]-pyridine] |
| – | 42 nM | Cc1nc(C#Cc2ccnc(Cl)c2)c(C(F)F)n1-c1ccc(F)cc1 [Example 27, 2-Chloro-4-[5-difluoromethyl-1-(4-fluoro-phenyl)-2-methyl-1H-imidazol-4-ylethynyl]-pyridine] |
